In US7098333B2, “Pyrrolo[2,3-d]pyrimidine and their use as purinergic receptor antagonists” (Vernalis Research Limited, priority 2001, dated 2006):

Legend:
[1] = cited from earlier work
[2] = biological target: human adenosine A2A receptors (Homo sapiens, UniProt P29274); assay: Binding affinities at hA2A receptors, displacement of [3H]-CGS 21680; settings: displacement of radioligand [3H]-CGS 21680, in vitro
[3] = test system: adenosine A2A receptor; settings: cited from earlier work

Chain of human adenosine A2A receptors (P29274 whole entry): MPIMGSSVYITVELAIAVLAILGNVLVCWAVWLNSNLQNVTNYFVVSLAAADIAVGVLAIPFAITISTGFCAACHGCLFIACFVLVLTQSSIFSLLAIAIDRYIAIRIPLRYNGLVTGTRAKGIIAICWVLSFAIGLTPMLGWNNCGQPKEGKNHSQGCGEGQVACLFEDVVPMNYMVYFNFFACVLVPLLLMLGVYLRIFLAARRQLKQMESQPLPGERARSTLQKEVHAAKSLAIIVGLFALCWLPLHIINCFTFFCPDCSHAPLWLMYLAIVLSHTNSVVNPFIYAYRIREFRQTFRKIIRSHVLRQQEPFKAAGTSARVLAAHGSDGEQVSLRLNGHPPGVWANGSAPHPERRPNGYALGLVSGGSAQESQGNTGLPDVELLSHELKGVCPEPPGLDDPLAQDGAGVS

With COc1ccc(CNc2nc(-c3ccco3)c3cc[nH]c3n2)cc1OC [Example 7, N-(3,4-dimethoxybenzyl)-4-(2-furyl)-1H-pyrrolo[2,3-d]pyrimidine-2-amine] as the molecule, how does the melting point read?
The melting point was 154.8 to 154.9 °C.

Which results are given for Cn1c(=O)c2[nH]cnc2n(C)c1=O [Theophylline, 1,3-dimethylxanthine]?
mean objective disability scores ([1]; 150 mg/day oral, up to 12 weeks, 15 Parkinsonian patients): significant improvements; patients reporting moderate or marked subjective improvement ([1]; of 15 Parkinsonian patients, 150 mg/day oral, up to 12 weeks): 11; serum theophylline levels ([1]; slow release oral preparation 150 mg/day, after one week, 15 Parkinsonian patients): 4.44 mg/L

With OC[C@H]1CCCN1c1nc(-c2ccco2)c2cc[nH]c2n1 [Example 6, (2R)-2-(2-hydroxymethylpyrrolidin-1-yl)-4-(2-furyl)-1H-pyrrolo[2,3-d]pyrimidine] as the molecule, how does the melting point read?
The melting point was 174.8 to 175.6 °C.

For CN(C)c1nc(-c2ccco2)c2cc[nH]c2n1 [Example 1, N,N-dimethyl-4-(2-furyl)-1H-pyrrolo[2,3-d]pyrimidine-2-amine], which Ki [2] is on record?
The Ki was 60 nM.

What about the melting point of the same molecule?
Its melting point is 196.9 to 197.1 °C.

With CN(C)c1nc(-c2ccco2)c2ccn(Cc3ccccc3)c2n1 [Example 3, 7-benzyl-N,N-dimethyl-4-(2-furyl)-7H-pyrrolo[2,3-d]pyrimidine-2-amine] as the molecule, how does the melting point read?
The melting point was 91.7 to 92.3 °C.

Which melting point does the source give for CN(C)c1nc(-c2ccco2)c2ccn(C(=O)c3ccccc3)c2n1 [Example 5, 7-benzoyl-N,N-dimethyl-4-(2-furyl)-7H-pyrrolo[2,3-d]pyrimidine-2-amine] here?
Its melting point is 108.3 to 109.1 °C.

Which Ki [2] does the source give for Nc1nc(-c2ccco2)c2ccn(Cc3ccccc3F)c2n1 [Example 13, 7-(2-fluorobenzyl)-4-(2-furyl)-7H-pyrrolo[2,3-d]pyrimidine-2-amine] here?
Its Ki is 16 nM.

For Nc1nc(-c2ccco2)c2cc[nH]c2n1 [Example 8, 4-(2-furyl)-1H-pyrrolo[2,3-d]pyrimidine-2-amine], which Ki [2] is on record?
Its Ki is 272 nM.

For CN(C)c1nc(-c2ccco2)c2ccn(Cc3ccccc3F)c2n1 [Example 11, N,N-dimethyl-7-(2-fluorobenzyl)-4-(2-furyl)-7H-pyrrolo[2,3-d]pyrimidine-2-amine], which melting point is on record?
The melting point was 115.1 to 115.2 °C.

With Clc1nc(-c2ccco2)c2cc[nH]c2n1 [Example 2, 2-chloro-4-(2-furyl)-1H-pyrrolo[2,3-d]pyrimidine] as the molecule, how does the melting point read?
The melting point was 265.8 to 266.3 °C.

Which “anticataleptic effects of a subthreshold dose of L-DOPA plus benserazide” value ([3]; combination with L-DOPA plus benserazide) does the source give for CCCn1c(=O)c2c(nc(/C=C/c3ccc(OC)c(OC)c3)n2C)n(CCC)c1=O [KF 17837, (E)-8-(3,4-dimethoxystyryl)-1,3-dipropyl-7-methylxanthine] here?
Its value is “potentiated”.

What about the “catalepsy induced by haloperidol and reserpine” value ([3]; in vivo) of the same molecule?
The value was “reduced”.

And the “cataleptic responses induced by intracerebroventricular CGS 21680” value ([3]; oral administration)?
The value was “significantly ameliorated”.
